In PMC9512702 (Nature Chemical Biology, 2022):
In brackets after ≈: the same amount, converted by molar mass. Several values for one entry are separate records, joined by “and”; a condition that tells them apart may be missing. Equal entries are not always repeated. Where a SMILES comes first, the peptide text is derived from it. [ ]: non-standard residue; d: D form. Cha = N[C@@H](CC1CCCCC1)C(=O)O; Aib = CC(C)(N)C(=O)O

Tests used:
[1] = target: SARS-CoV-2 RBD binding to immobilized ACE2 (Severe acute respiratory syndrome coronavirus 2, UniProt P0DTC2); assay: biochemical
[2] = Solubility measurement (peptide concentration in saturated solution); conditions: sodium-phosphate buffer, pH 7.4, aqueous buffer, thermodynamic from solid
Description: Approximately 2 mg of each peptide was added to 500 µl of buffer in 1.5-ml Eppendorf tubes. The tubes were shaken at 25 °C for 2 h on a 900 r.p.m. vortex shaker. The samples were centrifuged at 12,000 r.p.m. for 15 min to remove the precipitate and the supernatant was analyzed by ultraviolet–visible light (UV–vis) spectrometry.

SARS-CoV-2 RBD = SARS-CoV-2 RBD (Severe acute respiratory syndrome coronavirus 2, UniProt P0DTC2); assay: biochemical; assay type: binding; conditions: KD (direct binding to RBD)
[3] = Cell viability (MTT) assay, Vero-E6; assay type: cell-based, monkey; conditions: monkey; Vero-E6 cells, MTT, 20 μM (highest concentration tested), 48 h
Description: (§1) The cell viability assay was performed by using the MTT (3-(4,5-dimethylthiazol-2-yl)-2,5-diphenyltetrazolium bromide) assay. […] The next day, 50 μl of media was removed from each well and 50 μl of the peptide was added in a dose-dependent manner. 10% DMSO (final concentration v/v) was used as a positive control for the induction of cytotoxicity. […] The plate was incubated for another 4 h in the humidified CO2 incubator, after which 100 μl of dissolving solution (10% SDS in 0.01 M HCl) was added to each well. The plate was then incubated in a CO2 incubator overnight. The next day, the plate was read for absorbance at 570 nm. The percentage viability of cells was recorded in comparison to the untreated cells.

Vero-E6 cells = assay: Cell viability (MTT) assay, Vero-E6; assay type: cell-based, monkey; conditions: Vero-E6 cytotoxicity vs pseudovirus IC50
Description: as §1

CC[C@H](C)[C@H](NC(=O)[C@H](CC(C)C)NC(=O)[C@H](CC(=O)O)NC(=O)[C@H](CO)NC(=O)[C@@H](NC(=O)[C@H](CCCNC(=N)N)NC(=O)[C@H](CCSC)NC(=O)[C@H](CO)NC(=O)[C@H](C)NC(=O)[C@H](CCC(=O)O)NC(=O)C(C)(C)NC(=O)[C@H](CC(=O)O)NC(=O)[C@@H](C)NC(=O)[C@H](CC(C)C)NC(=O)[C@H](CCC(=O)O)NC(=O)[C@H](CC(=O)O)NC(=O)[C@H](CC(C)C)NC(=O)[C@H](CC(C)C)NC(=O)[C@H](CCCNC(=N)N)NC(=O)[C@H](CCSC)NC(=O)[C@@H](NC(=O)[C@H](CCC(=O)O)NC(=O)[C@H](Cc1ccc(O)cc1)NC(=O)[C@@H](NC(=O)[C@H](CCCCN)NC(=O)[C@H](CCC(N)=O)NC(=O)[C@H](CC(C)C)NC(=O)[C@@H](NC(=O)[C@H](Cc1c[nH]c2ccccc12)NC(=O)[C@H](CCC(=O)O)NC(=O)[C@H](CCCCN)NC(=O)[C@@H](N)CC(=O)O)[C@@H](C)CC)[C@@H](C)CC)[C@@H](C)CC)C(C)C)C(=O)N[C@@H](Cc1ccc(O)cc1)C(=O)N[C@@H](CCC(=O)O)C(=O)N[C@@H](Cc1ccccc1)C(=O)N[C@@H](CCSC)C(=O)N[C@@H](CCCCN)C(=O)N[C@@H](CCCCN)C(N)=O [SIH-5] (H-DKEWILQKIYEIMRLLDEL[dA]D[Aib]EASMRVSDLIYEFMKK-NH2)
IC50 [1]: 125 to 250 nM | solubility thermodynamic at 2 h [2]: > 700 µM | Kd (SARS-CoV-2 RBD; re-analyzed): ~0.9 nM and 0.9 nM | viability at 48 h, 20 µM [3]: > 75%

CC[C@H](C)[C@H](NC(=O)[C@H](CC(C)C)NC(=O)[C@H](CC(=O)O)NC(=O)[C@H](CO)NC(=O)[C@@H](NC(=O)[C@H](CCCNC(=N)N)NC(=O)[C@H](CCSC)NC(=O)[C@H](CO)NC(=O)[C@H](C)NC(=O)[C@H](CCC(=O)O)NC(=O)C(C)(C)NC(=O)[C@H](Cc1c[nH]cn1)NC(=O)CNC(=O)[C@H](CC(C)C)NC(=O)[C@H](CCC(=O)O)NC(=O)[C@H](CC(=O)O)NC(=O)[C@H](CC(C)C)NC(=O)[C@H](CC(C)C)NC(=O)[C@H](CCCNC(=N)N)NC(=O)[C@H](CCSC)NC(=O)[C@@H](NC(=O)[C@H](CCC(=O)O)NC(=O)[C@H](Cc1ccc(O)cc1)NC(=O)[C@@H](NC(=O)[C@H](CCCCN)NC(=O)[C@H](CCC(N)=O)NC(=O)[C@H](CC(C)C)NC(=O)[C@@H](NC(=O)[C@H](Cc1c[nH]c2ccccc12)NC(=O)[C@H](CCC(=O)O)NC(=O)[C@H](CCCCN)NC(=O)[C@@H](N)CC(=O)O)[C@@H](C)CC)[C@@H](C)CC)[C@@H](C)CC)C(C)C)C(=O)N[C@@H](Cc1ccc(O)cc1)C(=O)N[C@@H](CCC(=O)O)C(=O)N[C@@H](Cc1ccccc1)C(=O)N[C@@H](CCSC)C(=O)N[C@@H](CCCCN)C(=O)N[C@@H](CCCCN)C(N)=O [SIH-2] (H-DKEWILQKIYEIMRLLDELGH[Aib]EASMRVSDLIYEFMKK-NH2)
IC50 [1]: 1250 to 2500 nM | solubility thermodynamic at 2 h [2]: 32 µM (≈ 149 µg/mL)

CC[C@H](C)[C@H](NC(=O)[C@H](CC(C)C)NC(=O)[C@H](CC(=O)O)NC(=O)[C@H](CO)NC(=O)[C@@H](NC(=O)[C@H](CCCNC(=N)N)NC(=O)[C@H](CCSC)NC(=O)[C@H](CO)NC(=O)[C@H](C)NC(=O)[C@H](CCC(=O)O)NC(=O)C(C)(C)NC(=O)[C@H](CC(=O)O)NC(=O)[C@@H](C)NC(=O)[C@H](CC(C)C)NC(=O)[C@H](CCC(=O)O)NC(=O)[C@H](CC(=O)O)NC(=O)[C@H](CC(C)C)NC(=O)[C@H](CC(C)C)NC(=O)[C@H](CCCNC(=N)N)NC(=O)[C@H](CCSC)NC(=O)[C@@H](NC(=O)[C@H](CCC(=O)O)NC(=O)[C@H](Cc1ccc(O)cc1)NC(=O)[C@@H](NC(=O)[C@H](CCCCN)NC(=O)[C@H](CCC(N)=O)NC(=O)[C@H](CC(C)C)NC(=O)[C@@H](NC(=O)[C@H](Cc1c[nH]c2ccccc12)NC(=O)[C@H](CCC(=O)O)NC(=O)[C@H](CCCCN)NC(=O)[C@@H](N)CC(=O)O)[C@@H](C)CC)[C@@H](C)CC)[C@@H](C)CC)C(C)C)C(=O)N[C@@H](Cc1ccc(O)cc1)C(=O)N[C@@H](CCC(=O)O)C(=O)N[C@@H](CC1CCCCC1)C(=O)N[C@@H](CCSC)C(=O)N[C@@H](CCCCN)C(=O)N[C@@H](CCCCN)C(N)=O [SIH-11] (H-DKEWILQKIYEIMRLLDEL[dA]D[Aib]EASMRVSDLIYE[Cha]MKK-NH2)
IC50 [1]: 125 to 250 nM | Kd (SARS-CoV-2 RBD): 1.3 nM | Selectivity index (50% cytotoxic concentration divided by IC50) (Vero-E6 cells): > 50,000 | viability at 48 h, 20 µM [3]: > 75%
